Reference: patent US20080125495A1, “Ameliorant For Renal Insufficiency” (MEIJI DAIRIES CORPORATION, priority 2004, published 2008)

Test system: diabetes model rats
Assay: Renal dysfunction parameters in STZ-induced diabetes model rats (kidney weight, serum creatinine, serum urea nitrogen, MDA in kidney)
Format: in vivo, SD rats
Method: To 8 weeks old male SD rats, 50 mg/kg of STZ (streptozotocin, manufactured by Wako Pure Chemical Industries, Ltd.) was intraperitoneally administered, thereby inducing diabetes. The diabetes model rats were divided into four groups: as therapeutic groups, 2,4,4-trimethyl-3(15-hydroxypentadecyl)-2-cyclohexen-1-one ([…]) synthesized by a method described in JP-A-2000-297034 was intraperitoneally administered once a day continuously for 4 or 8 weeks; and as controls, a non-therapeutic group with diabetes alone (Diabetic Control) and a control group without treatment were prepared. After 4 or 8 weeks, serum and both kidneys were removed from the rats. The right kidney was stored in a frozen state and the left kidney was subjected to formalin fixation.
Increase of kidney weight, elevation of serum creatinine level, and increase of MDA in kidney may be observed by renal dysfunction caused by diabetes.

[1] = 2 mg/kg i.p. once a day, 4 weeks after STZ administration
[2] = 2 mg/kg i.p. once a day, 8 weeks after STZ administration
[3] = 8 mg/kg i.p. once a day, 4 weeks after STZ administration
[4] = 8 mg/kg i.p. once a day, 8 weeks after STZ administration
[5] = 8 mg/kg, eighth week after STZ administration
[6] = 8 mg/kg, fourth week after STZ administration

For CC1=C(CCCCCCCCCCCCCCCO)C(C)(C)CCC1=O [Compound 1, 2,4,4-trimethyl-3(15-hydroxypentadecyl)-2-cyclohexen-1-one], the “increase of MDA in kidney (in words)” value (2 mg/kg) was “markedly suppressed”, the Serum creatinine [1] was 2.354 ± 0.254 mg/dL and the Serum urea nitrogen [1] was 51.00 ± 3.78 mg/dL. The Weight of kidney [1] was 1.33 ± 0.05 g, the Serum creatinine [2] was 2.504 ± 0.253 mg/dL and the Serum urea nitrogen [2] was 60.78 ± 5.34 mg/dL. The Weight of kidney [2] was 1.59 ± 0.04 g, the “elevation of serum creatinine level (in words)” value (4 mg/kg, eighth week after STZ administration) was “tendency of the suppression” and the “increase of MDA in kidney (in words)” value (8 mg/kg) was “markedly suppressed”. For the same compound, the Serum creatinine [3] was 1.004 ± 0.118 mg/dL, the Serum urea nitrogen [3] was 41.76 ± 3.60 mg/dL and the Weight of kidney [3] was 1.27 ± 0.07 g. The Serum creatinine [4] was 1.836 ± 0.228 mg/dL, the Serum urea nitrogen [4] was 53.69 ± 2.97 mg/dL and the Weight of kidney [4] was 1.33 ± 0.05 g. For the same compound, the “elevation of serum creatinine level (in words)” value [5] was “markedly suppressed”, the “increase of kidney weight (in words)” value [5] was “markedly suppressed” and the “elevation of serum creatinine level (in words)” value [6] was “markedly suppressed”. The “elevation of serum urea nitrogen (in words)” value [6] was “markedly suppressed” and the “increase of kidney weight (in words)” value (rats to which the compound was administered, fourth week after STZ administration) was “suppressed”.
